Legend:
[1] = tested on: HT-1080 cells; assay: H2DCFDA intracellular ROS measurement, HT-1080; assay type: cell-based, human; conditions: 5 μM, 30 min after application
Description: (§1) Having established these premises, we repeated the measurements using the ROS-sensitive probe H2DCFDA instead of DCFDA. We have observed small, but statistically significant difference between the HT-1080 cells treated by GO-203 and control cells. Specifically, 30 min after application of the peptide the fluorescence signal from the treated cells was ca. 20% lower than the control, 82 ± 6 vs. 100 ± 7 (arbitrary units). The drop in fluorescence from cells that have been treated with GO-203 should be unequivocally attributed to the decreased level of ROS. The effect is small and unlikely to be the source of GO-203 cytotoxic activity. […] The detected drop in ROS level was below the level of statistical significance, 98 ± 3 vs. 100 ± 11 (see Fig. S3). […]
(§2) The cells were seeded into 35-mm Nunc culture dishes (Thermo Scientific, USA) at 1.2 × 10^5 cells per dish and allowed to attach for 24 h. […] After that GO-203 was added directly to the suspension and cell fluorescence was measured by flow cytometry at multiple time points during the following 2 hours. […] Cell fluorescence was then immediately measured by flow cytometry. […]
(§3) Cell fluorescence was measured using CytoFLEX (Beckman Coulter, USA) flow cytometer equipped with 3 lasers (405, 488 and 633 nm). […] Mean fluorescence intensity from 10,000 cells was acquired. […]

[2] = tested on: ZR-75-1 cell line; assay: H2DCFDA intracellular ROS measurement, ZR-75-1; assay type: cell-based, human; conditions: 10 μM, 30 min incubation, control 100 ± 11, mean and SD, below statistical significance
Description: as §1, §2, §3

[3] = tested on: HT-1080 cells; assay: Time-lapse microscopy and side angle light scatter, HT-1080; assay type: cell-based, human
Description: The data from time-lapse microscopy on HT-1080 cells provide a visual evidence of GO-203-induced apoptosis, Fig. 5 (see also Film S1). […] After 1.5 h we observe the fully developed picture of apoptosis. This is illustrated in the right panel of Fig. 5: three cells in this photograph experience blebbing, while the fourth cell located in the upper right portion of the image has undergone detachment and rounded up (it is soon to enter the blebbing phase). This time line is confirmed by the side angle light scatter data from the flow-cytometry experiment, Fig. 6C. […] This behavior reflects the onset of dynamic blebbing and the concomitant increase in the roughness of the cell surface. In this context it is worth noting that actomyosin cortex contraction and blebbing are subsequent to (and in fact driven by) caspase activation. The condensation of nucleus and cytoplasm in apoptotic cells can also contribute to the increased side scatter.
Figure 5 Time-lapse microscopy of HT-1080 cells. (A) Cells before the addition of the peptide and (B) 1 h 20 min after the addition of 5 μM GO-203.
Figure 6 Dynamics of (A) mitochondrial membrane potential, (B) intracellular ROS levels, and (C) cell refractive properties in suspended HT-1080 cells following the addition of 5 μM GO-203.
The cells were seeded into 35-mm Nunc culture dishes (Thermo Scientific, USA) at 1.2 × 10^5 cells per dish and allowed to attach for 24 h. To monitor intracellular ROS in a time-dependent manner, the cells were incubated for 30 min with 10 μM of carboxy-H2DCFDA (Invitrogen, USA), then harvested with trypsin-EDTA and suspended in a fresh medium. After that GO-203 was added directly to the suspension and cell fluorescence was measured by flow cytometry at multiple time points during the following 2 hours. The same procedure was used for mitochondria-specific fluorescent dye Rhodamine 123 (Thermo Fisher Scientific, USA), which was added to a concentration of 5 μM. The complementary side scatter measurements were conducted using 488 nm laser light. In another series of experiments, we have used the related indicator of oxidative stress, H2DCFDA (Invitrogen, USA). The experiment started by adding GO-203 to the cell growth medium; then 10 min later 5 μM of H2DCFDA has been added. After 20 min incubations with H2DCFDA, the cells were harvested with trypsin-EDTA and suspended in a fresh medium. Cell fluorescence was then immediately measured by flow cytometry. The same procedure was followed for the ROS-insensitive (control) modification of the fluorescent probe, DCFDA.
For live cell microscopy, HT-1080 cells were seeded into 35-mm сell imaging dish with cover glass bottom (Eppendorf, Germany) and allowed to attach for 24 h. The cell response to 5 μM GO-203 exposure was monitored using the Axio Observer. […]

[4] = tested on: human breast carcinoma cell line ZR-75-1; assay: MTS cell viability assay, ZR-75-1
Description: (§4) As a next step, we used MTS assay[27] to examine the effect of GO peptides on the viability of the four described cell cultures as a function of different treatment schemes. […] This treatment regimen is labeled 4 × 5 underneath the graph. Alternatively, we introduced 5 μM of peptide daily while exchanging the medium (denoted 4/5). Unlike the previous protocol, it avoids potential build-up of the peptide in the medium.
(§5) The treatment protocols are: 4 × 5 – four daily doses of 5 μM delivered without exchanging the growth medium; 4/5 – four daily doses of 5 μM delivered with exchanged growth medium; 1 × 5, 1 × 10, 1 × 15, and 1 × 20 – a single dose of 5, 10, 15, or 20 μM, respectively. MTS reagent was added to the wells 96 h after the first (and sometimes the only) application of the peptide and the optical density at 492 nm was measured to determine the fraction of the surviving cells.
The data are according to the MTS assay, where the optical density was measured 96 h after the application of the peptide.
(§6) Cell survival was measured using CellTiter 96 AQueous One Solution Cell Proliferation Assay (MTS test, Promega, USA). Cells have been seeded in a 96-well flat-bottom plate in 100 μl of culture medium (10^3 cells/well for A549, HT-1080, dermal fibroblasts and eMSC or 5 × 10^3 cells/well for ZR-75-1) and allowed to attach for 24 h. The starting amount of cells was chosen to account for their growth rate and degree of spreading such as to avoid excessive dilution in the beginning of the experiment or control cell overgrowth toward the end. After 24 h, 10 μl of peptide stock solution or PBS (control) were added to the wells. After 96 h, 20 μl of the MTS-reagent were added to each well and 1–2 h later optical density was measured at the wavelength 492 nm using the 96-well plate reader (Titertek Multiskan, Labsystems, Finland). All experiments were conducted in duplicate or triplicate.

[5] = tested on: primary culture of human dermal fibroblasts (DF); assay: MTS cell viability assay, dermal fibroblasts
Description: as §4, §5
As a next step, we set out to test the cytotoxic effect of these peptides on the normal cells.
as §6

[6] = HT-1080, 5 μM, time-lapse microscopy

## [R]9CQCRRKN [GO-203]
[1]
  Decrease of H2DCFDA fluorescence signal versus control: ca. 20%
[1]; control 100 ± 7, mean and SD
  H2DCFDA fluorescence signal (ROS level): 82 ± 6 arbitrary units
[2]
  H2DCFDA fluorescence signal (ROS level): 98 ± 3 arbitrary units
[3]; [6]
  Time to fully developed picture of apoptosis: 1.5 h
  Time to morphological features of apoptosis (cell contraction, membrane blebbing): within the first hour
[3]; suspended HT-1080 cells, 5 μM, flow cytometry, 488 nm
  Time at which side angle light scatter starts to rise versus control: 30 min
[3]; treated cells, summary statement
  Onset of apoptosis after application: ca. 30 min
[4]; 1 × 5: single dose of 5 μM, 96 h
  Cell viability (MTS): essentially inconsequential
[4]; 1 × 20: single dose of 20 μM, 96 h
  Cell viability (MTS): substantially cytotoxic
[4]; 4/5: four daily doses of 5 μM with exchanged growth medium, 96 h
  Cell viability (MTS): inefficient
[4]; 4 × 5: four daily doses of 5 μM without exchanging growth medium, OD 492 nm 96 h after first application
  Cell viability (MTS): considerable damage
[5]; dermal fibroblasts, 1 × 5: single dose of 5 μM, 96 h
  Cell viability (MTS): essentially inconsequential
[5]; dermal fibroblasts, 4/5: four daily doses of 5 μM with exchanged growth medium, 96 h
  Cell viability (MTS): inefficient
[5]; dermal fibroblasts, 4 × 5: four daily doses of 5 μM without exchanging growth medium, OD 492 nm 96 h after first application
  Cell viability (MTS): essentially complete cell death
[5]; skin (dermal) fibroblasts, 1 × 10: single dose of 10 μM, 96 h
  Cell viability (MTS): nearly wipes out

— paper PMC5238392, “Origin of anti-tumor activity of the cysteine-containing GO peptides and further optimization of their cytotoxic properties” (Scientific Reports, 2017)
